# Laboratory results as given in PubChem BioAssay (NCI).
#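 Assay format: 96-well plates, 48-hour exposure. TGI denotes the concentration required for complete inhibition of growth.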
# Experiments:
# Assay in all cases: NCI tumour cell line growth inhibition, 48 h
# UACC-257 melanoma = test system: UACC-257 melanoma
# NCI-H522 lung = test system: NCI-H522 lung
# DU-145 prostate = test system: DU-145 prostate
# T-47D breast = test system: T-47D breast
# HCT-15 colon = test system: HCT-15 colon
# HT29 colon = test system: HT29 colon
# MDA-N = test system: MDA-N
# SF-268 CNS = test system: SF-268 CNS
# ACHN renal = test system: ACHN renal
# OVCAR-3 ovarian = test system: OVCAR-3 ovarian
# U251 CNS = test system: U251 CNS
# OVCAR-5 ovarian = test system: OVCAR-5 ovarian
# KM12 colon = test system: KM12 colon
# CCRF-CEM leukemia = test system: CCRF-CEM leukemia
# MALME-3M melanoma = test system: MALME-3M melanoma
# UO-31 renal = test system: UO-31 renal
# CAKI-1 renal = test system: CAKI-1 renal
# TK-10 renal = test system: TK-10 renal
# A498 renal = test system: A498 renal
# MDA-MB-231 breast = test system: MDA-MB-231 breast
# OVCAR-8 ovarian = test system: OVCAR-8 ovarian
# HOP-92 NSCLC = test system: HOP-92 NSCLC
# A549 NSCLC = test system: A549 NSCLC
# BT-549 breast = test system: BT-549 breast
# SNB-75 CNS = test system: SNB-75 CNS
# SN12C renal = test system: SN12C renal
# SNB-19 CNS = test system: SNB-19 CNS
# HL-60(TB) leukemia = test system: HL-60(TB) leukemia
# MDA-MB-435 = test system: MDA-MB-435
# HS 578T breast = test system: HS 578T breast
# SK-MEL-5 melanoma = test system: SK-MEL-5 melanoma
# NCI-H23 lung = test system: NCI-H23 lung
# NCI-H226 lung = test system: NCI-H226 lung
# SF-295 CNS = test system: SF-295 CNS
# RXF 393 renal = test system: RXF 393 renal
# 786-0 renal = test system: 786-0 renal
# HOP-62 NSCLC = test system: HOP-62 NSCLC
# MCF7 breast = test system: MCF7 breast
# SW-620 colon = test system: SW-620 colon
# SK-OV-3 ovarian = test system: SK-OV-3 ovarian
# RPMI-8226 leukemia = test system: RPMI-8226 leukemia
# LOX IMVI melanoma = test system: LOX IMVI melanoma
# UACC-62 melanoma = test system: UACC-62 melanoma
# COLO 205 colon = test system: COLO 205 colon
# HCT-116 colon = test system: HCT-116 colon
# IGROV1 ovarian = test system: IGROV1 ovarian
# SF-539 CNS = test system: SF-539 CNS
# MOLT-4 leukemia = test system: MOLT-4 leukemia
# OVCAR-4 ovarian = test system: OVCAR-4 ovarian
# K-562 leukemia = test system: K-562 leukemia
# PC-3 prostate = test system: PC-3 prostate
# M14 melanoma = test system: M14 melanoma
# NCI/ADR-RES ovarian = test system: NCI/ADR-RES ovarian
# EKVX NSCLC = test system: EKVX NSCLC
# NCI-H460 lung = test system: NCI-H460 lung
# SK-MEL-2 melanoma = test system: SK-MEL-2 melanoma
# HCC-2998 colon = test system: HCC-2998 colon
compound,measurement,setting,value
N#Cc1cc(-c2nc3ccc(F)cc3s2)ccc1N,TGI,UACC-257 melanoma,> 100 µM
same,TGI,NCI-H522 lung,> 100 µM
same,TGI,DU-145 prostate,> 100 µM
same,TGI,T-47D breast,> 100 µM
same,TGI,HCT-15 colon,> 100 µM
same,TGI,HT29 colon,> 100 µM
same,TGI,MDA-N,> 100 µM
same,TGI,SF-268 CNS,> 100 µM
same,TGI,ACHN renal,> 100 µM
same,TGI,OVCAR-3 ovarian,> 100 µM
same,TGI,U251 CNS,> 100 µM
same,TGI,OVCAR-5 ovarian,> 100 µM
same,TGI,KM12 colon,> 100 µM
same,TGI,CCRF-CEM leukemia,> 100 µM
same,TGI,MALME-3M melanoma,> 100 µM
same,TGI,UO-31 renal,> 100 µM
same,TGI,CAKI-1 renal,> 100 µM
same,TGI,TK-10 renal,> 100 µM
same,TGI,A498 renal,> 100 µM
same,TGI,MDA-MB-231 breast,> 100 µM
same,TGI,OVCAR-8 ovarian,> 100 µM
same,TGI,HOP-92 NSCLC,> 100 µM
same,TGI,A549 NSCLC,> 100 µM
same,TGI,BT-549 breast,> 100 µM
same,TGI,SNB-75 CNS,> 100 µM
same,TGI,SN12C renal,> 100 µM
same,TGI,SNB-19 CNS,> 100 µM
same,TGI,HL-60(TB) leukemia,> 100 µM
same,TGI,MDA-MB-435,> 100 µM
same,TGI,HS 578T breast,> 100 µM
same,TGI,SK-MEL-5 melanoma,> 100 µM
same,TGI,NCI-H23 lung,> 100 µM
same,TGI,NCI-H226 lung,> 100 µM
same,TGI,SF-295 CNS,> 100 µM
same,TGI,RXF 393 renal,> 100 µM
same,TGI,786-0 renal,> 100 µM
same,TGI,HOP-62 NSCLC,> 100 µM
same,TGI,MCF7 breast,> 100 µM
same,TGI,SW-620 colon,> 100 µM
same,TGI,SK-OV-3 ovarian,96.6 µM
same,TGI,RPMI-8226 leukemia,> 100 µM
same,TGI,LOX IMVI melanoma,> 100 µM
same,TGI,UACC-62 melanoma,> 100 µM
same,TGI,COLO 205 colon,> 100 µM
same,TGI,HCT-116 colon,> 100 µM
same,TGI,IGROV1 ovarian,> 100 µM
same,TGI,SF-539 CNS,> 100 µM
same,TGI,MOLT-4 leukemia,> 100 µM
same,TGI,OVCAR-4 ovarian,> 100 µM
same,TGI,K-562 leukemia,> 100 µM
same,TGI,PC-3 prostate,> 100 µM
same,TGI,M14 melanoma,> 100 µM
same,TGI,NCI/ADR-RES ovarian,> 100 µM
same,TGI,EKVX NSCLC,> 100 µM
same,TGI,NCI-H460 lung,> 100 µM
COc1ccc(-c2nc3ccccc3c(=O)[nH]2)c(OC)c1,TGI,UACC-257 melanoma,> 100 µM
same,TGI,DU-145 prostate,> 100 µM
same,TGI,T-47D breast,> 100 µM
same,TGI,HCT-15 colon,> 100 µM
same,TGI,HT29 colon,> 100 µM
same,TGI,MDA-N,> 100 µM
same,TGI,SF-268 CNS,> 100 µM
same,TGI,ACHN renal,> 100 µM
same,TGI,OVCAR-3 ovarian,> 100 µM
same,TGI,U251 CNS,> 100 µM
same,TGI,OVCAR-5 ovarian,> 100 µM
same,TGI,KM12 colon,> 100 µM
same,TGI,CCRF-CEM leukemia,> 100 µM
same,TGI,MALME-3M melanoma,> 100 µM
same,TGI,UO-31 renal,> 100 µM
same,TGI,CAKI-1 renal,> 100 µM
same,TGI,A498 renal,> 100 µM
same,TGI,MDA-MB-231 breast,> 100 µM
same,TGI,OVCAR-8 ovarian,> 100 µM
same,TGI,A549 NSCLC,> 100 µM
same,TGI,BT-549 breast,> 100 µM
same,TGI,SNB-75 CNS,> 100 µM
same,TGI,SN12C renal,> 100 µM
same,TGI,SNB-19 CNS,> 100 µM
same,TGI,MDA-MB-435,> 100 µM
same,TGI,SK-MEL-2 melanoma,> 100 µM
same,TGI,HS 578T breast,> 100 µM
same,TGI,SK-MEL-5 melanoma,> 100 µM
same,TGI,NCI-H23 lung,> 100 µM
same,TGI,NCI-H226 lung,> 100 µM
same,TGI,HCC-2998 colon,> 100 µM
same,TGI,SF-295 CNS,> 100 µM
same,TGI,RXF 393 renal,> 100 µM
same,TGI,786-0 renal,> 100 µM
same,TGI,HOP-62 NSCLC,> 100 µM
same,TGI,MCF7 breast,> 100 µM
same,TGI,SW-620 colon,> 100 µM
same,TGI,SK-OV-3 ovarian,> 100 µM
same,TGI,RPMI-8226 leukemia,83.4 µM
same,TGI,UACC-62 melanoma,> 100 µM
same,TGI,COLO 205 colon,> 100 µM
same,TGI,HCT-116 colon,> 100 µM
same,TGI,IGROV1 ovarian,> 100 µM
same,TGI,MOLT-4 leukemia,> 100 µM
same,TGI,OVCAR-4 ovarian,> 100 µM
same,TGI,PC-3 prostate,> 100 µM
same,TGI,M14 melanoma,> 100 µM
same,TGI,NCI/ADR-RES ovarian,> 100 µM
same,TGI,EKVX NSCLC,> 100 µM
same,TGI,NCI-H460 lung,> 100 µM
